In ChEMBL document CHEMBL1201862, “PubChem BioAssay data set” (2004):
Activity calls are given as the source filed them.

Experiments:
cells [1] = conditions: HEK293;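 note: cells exposed to compound for 48 hours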
[2] = Luminescence Cell-Based Dose Confirmation HTS to Identify Activators of 5'UTR Stem-Loop Driven Alpha-Synuclein mRNA Translation in H4 Neuroglioblastoma Cells. [Related pubchem assays: 1829 (Project Summary), 1814 (Primary HTS)]; type: functional
[3] = Luminescence Cell-Based Dose Response HTS to Identify Activators of Luciferase Translation or Activity in H4 […] Cells. [Related pubchem assays: 1829 (Project Summary), 1814 (Primary HTS)]; type: functional
cells [4] = assay: cells
H4 = assay: Luminescence Cell-Based Dose Response HTS to Identify Activators of 5'UTR Stem-Loop Driven Prion Protein mRNA Translation in H4 Neuroglioblastoma Cells. [Related pubchem assays: 1829 (Project Summary), 1814 (Primary HTS)]; type: functional; conditions: Homo sapiens
cells [5] = assay: cells; remark: listed apart in the source
[6] = molecular target: T1, Oxysterols receptor LXR-beta (Homo sapiens, UniProt P55055); type: functional, cell-based;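 note: Cell-based luminescence dose-response assay of agonist activity at LXR, run as a confirmatory counterscreen to a daf-12 agonist screen; HEK293 cells with Gal4-LXR fusion and GAL4-driven luciferase reporter; agonist potency from rising luciferase signal of a Gal4-LXR reporter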
T1 sequence (P55055 whole entry): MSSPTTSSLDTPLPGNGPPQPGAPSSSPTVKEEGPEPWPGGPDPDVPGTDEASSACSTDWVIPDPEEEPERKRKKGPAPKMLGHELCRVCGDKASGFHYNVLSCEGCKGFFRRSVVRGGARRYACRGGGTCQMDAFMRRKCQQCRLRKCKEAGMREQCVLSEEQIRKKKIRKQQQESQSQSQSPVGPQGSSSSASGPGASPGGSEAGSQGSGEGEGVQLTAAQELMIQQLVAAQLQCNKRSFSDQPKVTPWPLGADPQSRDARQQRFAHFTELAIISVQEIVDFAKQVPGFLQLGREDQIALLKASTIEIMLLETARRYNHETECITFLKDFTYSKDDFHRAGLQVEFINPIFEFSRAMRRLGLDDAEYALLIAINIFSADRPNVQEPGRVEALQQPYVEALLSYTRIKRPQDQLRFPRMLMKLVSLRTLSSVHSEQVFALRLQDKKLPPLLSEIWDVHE

[7] = molecular target: T2, Methionyl-tRNA synthetase, putative (Trypanosoma brucei brucei, UniProt Q38C91); type: functional, Trypanosoma brucei brucei strain 927/4 GUTat10.1
T2 sequence (Q38C91 whole entry): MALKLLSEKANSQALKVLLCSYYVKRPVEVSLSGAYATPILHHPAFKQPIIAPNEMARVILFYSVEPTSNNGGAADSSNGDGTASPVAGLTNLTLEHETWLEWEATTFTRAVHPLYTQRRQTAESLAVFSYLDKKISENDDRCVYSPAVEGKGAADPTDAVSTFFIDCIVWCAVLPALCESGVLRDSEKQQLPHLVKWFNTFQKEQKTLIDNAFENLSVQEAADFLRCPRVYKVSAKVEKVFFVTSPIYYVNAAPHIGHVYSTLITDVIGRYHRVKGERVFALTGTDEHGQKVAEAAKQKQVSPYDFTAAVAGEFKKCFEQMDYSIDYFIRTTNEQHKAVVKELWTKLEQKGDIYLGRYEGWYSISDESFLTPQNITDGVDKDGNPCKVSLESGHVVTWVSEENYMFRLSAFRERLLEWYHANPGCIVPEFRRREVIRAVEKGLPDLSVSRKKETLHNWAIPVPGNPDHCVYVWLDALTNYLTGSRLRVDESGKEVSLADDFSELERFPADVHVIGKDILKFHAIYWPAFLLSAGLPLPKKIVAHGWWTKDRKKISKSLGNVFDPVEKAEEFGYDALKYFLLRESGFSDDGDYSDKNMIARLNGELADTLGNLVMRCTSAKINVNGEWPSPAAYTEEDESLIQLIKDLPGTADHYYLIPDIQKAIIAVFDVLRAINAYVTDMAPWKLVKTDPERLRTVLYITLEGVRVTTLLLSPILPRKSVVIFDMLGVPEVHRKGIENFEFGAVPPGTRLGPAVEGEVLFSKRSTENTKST

[8] = Late stage counterscreen for inhibitors of Trypanosoma brucei methionyl tRNA synthetase (MetRS): Luminescence-based cell-based high throughput dose response assay to identify compounds that are cytotoxic to Jurkat human T lymphocyte cells.; type: functional
[9] = Counterscreen for inhibitors of Trypanosoma brucei methionyl tRNA synthetase (MetRS): Luminescence-based cell-based high throughput dose response assay to identify compounds that are cytotoxic to Jurkat human T lymphocyte cells.; type: functional
[10] = molecular target: T2, Methionyl-tRNA synthetase, putative; type: functional, Trypanosoma brucei brucei strain 927/4 GUTat10.1; remark: listed apart in the source
[11] = molecular target: Nuclear receptor subfamily 5 group A member 2 (Homo sapiens, UniProt O00482); type: functional, cell-based;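 note: HEK293T cells transfected with LRH-1 and a StAR promoter luciferase reporter; potency for inhibitors that lower LRH-1 driven reporter light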
Nuclear receptor subfamily 5 group A member 2, sequence (O00482 whole entry): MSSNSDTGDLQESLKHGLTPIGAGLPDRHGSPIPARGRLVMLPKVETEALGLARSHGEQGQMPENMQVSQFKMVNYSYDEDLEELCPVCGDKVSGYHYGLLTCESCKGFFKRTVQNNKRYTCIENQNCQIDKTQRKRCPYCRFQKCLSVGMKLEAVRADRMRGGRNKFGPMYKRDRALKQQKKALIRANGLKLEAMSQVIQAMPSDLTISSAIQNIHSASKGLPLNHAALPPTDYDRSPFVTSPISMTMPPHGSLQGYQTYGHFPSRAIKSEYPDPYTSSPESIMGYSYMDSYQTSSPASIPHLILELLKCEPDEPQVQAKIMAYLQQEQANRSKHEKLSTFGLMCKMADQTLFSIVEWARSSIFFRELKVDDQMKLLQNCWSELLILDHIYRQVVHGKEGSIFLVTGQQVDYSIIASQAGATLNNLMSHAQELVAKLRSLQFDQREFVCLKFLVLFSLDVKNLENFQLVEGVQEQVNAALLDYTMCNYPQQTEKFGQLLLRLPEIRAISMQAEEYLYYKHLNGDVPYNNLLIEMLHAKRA

Steroidogenic factor 1 = Steroidogenic factor 1 (Homo sapiens, UniProt Q13285); assay: Counterscreen for inverse agonists of the liver receptor homolog-1 (LRH-1; NR5A2): Luminescence-based cell-based high throughput dose response assay to identify inverse agonists of the Steroidogenic Factor 1 Nuclear Receptor (SF1; NR5A1).; type: functional
Steroidogenic factor 1, sequence (Q13285 whole entry): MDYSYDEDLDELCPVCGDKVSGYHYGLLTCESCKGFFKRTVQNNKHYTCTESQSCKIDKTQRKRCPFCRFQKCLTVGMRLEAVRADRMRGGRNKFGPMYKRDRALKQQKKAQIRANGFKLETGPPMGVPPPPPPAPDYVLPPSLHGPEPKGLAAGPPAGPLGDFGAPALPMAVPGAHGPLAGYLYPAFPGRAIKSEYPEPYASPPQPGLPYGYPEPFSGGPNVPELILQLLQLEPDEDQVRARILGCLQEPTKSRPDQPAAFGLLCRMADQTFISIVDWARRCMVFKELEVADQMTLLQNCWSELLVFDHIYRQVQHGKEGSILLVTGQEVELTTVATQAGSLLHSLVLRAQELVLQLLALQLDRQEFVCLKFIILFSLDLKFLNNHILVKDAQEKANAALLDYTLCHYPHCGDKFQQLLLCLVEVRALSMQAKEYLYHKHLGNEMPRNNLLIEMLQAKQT

[12] = StAR promoter reporter inhibition counter-screen, dose response, counter-screen for LRH-1 inverse agonist project, cell-based, luminescence, luciferase reporter (AID 651969); type: functional
[13] = AlphaScreen signal interference by compounds, dose response, artefact control for ARNT/TACC3 disruptor project, biochemical, dual-tagged ARNT, dry powder (AID 720564)
Caspase-6 = Caspase-6 (Homo sapiens, UniProt P55212); assay: human caspase-6 inhibitors, dose response, biochemical, VEID-R110 fluorescence, cherry-pick (AID 720632)
Caspase-6, sequence (P55212 24-179 limits assumed): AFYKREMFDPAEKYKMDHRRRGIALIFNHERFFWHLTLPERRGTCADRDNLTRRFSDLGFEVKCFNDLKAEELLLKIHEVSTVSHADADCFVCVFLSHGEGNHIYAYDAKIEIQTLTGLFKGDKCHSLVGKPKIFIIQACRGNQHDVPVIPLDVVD
Caspase-6, sequence (P55212 194-293 limits assumed): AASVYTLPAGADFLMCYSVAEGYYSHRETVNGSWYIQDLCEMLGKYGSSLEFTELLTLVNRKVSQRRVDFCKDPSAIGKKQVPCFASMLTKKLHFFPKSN

Streptokinase A = molecular target: T3, Streptokinase A (Streptococcus pyogenes serotype M1, UniProt P10520); assay: S. pyogenes streptokinase expression inhibitors, potency, dose response, plasminogen activation absorbance, OD405 (AID 1914); type: functional, Streptococcus pyogenes M1 GAS;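 note: secreted streptokinase activity via plasminogen activation per viability signal from cell pellet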
T3 sequence (P10520 whole entry): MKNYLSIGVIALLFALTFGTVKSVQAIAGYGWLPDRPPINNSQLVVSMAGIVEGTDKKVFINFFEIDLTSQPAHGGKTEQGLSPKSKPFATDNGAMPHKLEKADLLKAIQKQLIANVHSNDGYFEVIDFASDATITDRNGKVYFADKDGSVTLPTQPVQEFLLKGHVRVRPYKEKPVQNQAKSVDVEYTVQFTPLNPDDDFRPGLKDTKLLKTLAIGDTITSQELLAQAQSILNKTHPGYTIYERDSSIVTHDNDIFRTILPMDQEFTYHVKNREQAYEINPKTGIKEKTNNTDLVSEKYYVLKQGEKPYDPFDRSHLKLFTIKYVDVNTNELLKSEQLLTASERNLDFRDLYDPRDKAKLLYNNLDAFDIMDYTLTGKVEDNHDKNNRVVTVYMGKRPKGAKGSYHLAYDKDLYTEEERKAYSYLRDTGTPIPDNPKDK

[14] = test system: Streptococcus sp. 'group A'; assay: growth inhibition of control SK(-) GAS strain, dose response, counter-screen for streptokinase expression inhibitor project, luminescence, kanamycin, BacTiterGlo, confirmation (AID 1900); type: functional, organism-based
Streptococcus = assay: Group A Streptococcus viability loss, dose response, counter-screen for streptokinase expression inhibitor project, luminescence, BacTiterGlo (AID 1915); type: functional, organism-based;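 note: potency for reduction of bacterial viability or growth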
[15] = cytotoxicity in HeLa cells, dose response, cytotoxicity control, cell-based, plate reader, dry powder (AID 651946); type: functional
[16] = molecular target: Potassium channel subfamily K member 3 (Homo sapiens, UniProt O14649); assay: TASK1 (KCNK3) potassium channel inhibitors, SAR follow-up, CHO cells, FluxOR thallium flux (AID 652212); type: functional
Potassium channel subfamily K member 3, sequence (O14649 whole entry): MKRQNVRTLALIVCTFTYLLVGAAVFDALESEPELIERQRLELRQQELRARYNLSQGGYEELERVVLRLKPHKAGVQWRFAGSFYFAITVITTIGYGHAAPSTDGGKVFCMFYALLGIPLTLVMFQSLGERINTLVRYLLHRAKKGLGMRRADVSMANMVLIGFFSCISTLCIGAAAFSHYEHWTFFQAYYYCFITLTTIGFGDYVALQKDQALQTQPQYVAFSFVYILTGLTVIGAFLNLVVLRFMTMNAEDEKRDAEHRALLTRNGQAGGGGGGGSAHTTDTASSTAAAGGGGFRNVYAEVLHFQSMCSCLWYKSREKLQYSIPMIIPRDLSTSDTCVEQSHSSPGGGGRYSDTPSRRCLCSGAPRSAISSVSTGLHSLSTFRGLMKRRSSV

[17] = molecular target: Voltage-gated inwardly rectifying potassium channel KCNH2 (Homo sapiens, UniProt Q12809); assay: hERG channel inhibition in selectivity testing, SAR follow-up, selectivity assay for TASK1 inhibitor project, FluxOR thallium flux, concentration-response, CHO cells (AID 652194); type: functional, cell-based
Voltage-gated inwardly rectifying potassium channel KCNH2, sequence (Q12809 whole entry): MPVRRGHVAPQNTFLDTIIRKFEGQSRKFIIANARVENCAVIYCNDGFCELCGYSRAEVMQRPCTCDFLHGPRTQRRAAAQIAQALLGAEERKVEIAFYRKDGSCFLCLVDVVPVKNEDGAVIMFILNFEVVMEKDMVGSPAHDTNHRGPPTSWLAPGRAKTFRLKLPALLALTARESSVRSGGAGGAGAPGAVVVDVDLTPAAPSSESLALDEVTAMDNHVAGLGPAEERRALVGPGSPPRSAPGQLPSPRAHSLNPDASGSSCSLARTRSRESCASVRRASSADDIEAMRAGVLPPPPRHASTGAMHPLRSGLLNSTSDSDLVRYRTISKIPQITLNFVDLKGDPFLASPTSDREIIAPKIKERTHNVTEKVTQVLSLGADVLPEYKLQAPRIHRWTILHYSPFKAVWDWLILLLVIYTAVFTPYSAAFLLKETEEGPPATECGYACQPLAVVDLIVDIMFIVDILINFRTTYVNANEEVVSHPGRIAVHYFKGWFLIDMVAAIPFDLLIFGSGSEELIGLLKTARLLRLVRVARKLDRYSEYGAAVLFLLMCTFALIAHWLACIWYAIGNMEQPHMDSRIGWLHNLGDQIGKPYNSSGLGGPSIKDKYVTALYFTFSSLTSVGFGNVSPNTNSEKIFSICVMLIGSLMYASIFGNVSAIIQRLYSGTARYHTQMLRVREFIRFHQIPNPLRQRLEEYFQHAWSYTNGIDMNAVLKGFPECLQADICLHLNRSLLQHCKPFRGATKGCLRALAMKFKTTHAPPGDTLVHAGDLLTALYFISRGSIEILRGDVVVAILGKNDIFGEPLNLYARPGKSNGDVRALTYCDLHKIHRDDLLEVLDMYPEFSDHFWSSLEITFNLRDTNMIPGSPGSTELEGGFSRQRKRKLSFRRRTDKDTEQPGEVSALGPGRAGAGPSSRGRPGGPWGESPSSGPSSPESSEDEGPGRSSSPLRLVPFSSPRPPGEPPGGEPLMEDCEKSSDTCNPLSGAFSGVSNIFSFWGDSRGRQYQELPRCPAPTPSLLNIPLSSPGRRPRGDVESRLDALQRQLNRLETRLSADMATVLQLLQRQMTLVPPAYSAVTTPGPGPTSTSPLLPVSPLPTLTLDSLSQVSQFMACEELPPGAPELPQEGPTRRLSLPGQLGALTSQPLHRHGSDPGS

[18] = inhibitors of HRE-driven luciferase expression, dose response, ARNT-TACC3 inhibitor project, HeLa cells, luminescence, dry powder samples, 2158-08 (AID 720560); type: functional, cell-based
[19] = HIF luciferase reporter inhibitors, dose response, ARNT-TACC3 inhibitor project, cell-based, dry powder samples, luminescence, 2158-07 (AID 720561); type: functional
[20] = IRAP inhibitors, dose response, selectivity assay for ERAP1 modulator project, biochemical, Leu-AMC fluorescence, cherry-picked samples, set 2 (AID 743340)
HeLa = assay: HeLa cell cytotoxicity, dose response, cytotoxicity control, ATP luminescence, cherry-pick samples (AID 687004); type: functional, cell-based; conditions: Homo sapiens
[21] = HEK293 Cytotoxicity Assay Measured in Cell-Based System Using Plate Reader - 7071-01_Inhibitor_Dose_CherryPick_Activity_Set2.; type: functional
HEK293 = assay: HEK293T cell cytotoxicity, dose response, cytotoxicity control, ATP luminescence, cherry-pick samples (AID 687005); type: functional, cell-based; conditions: Homo sapiens;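 note: cells exposed to compound for 48 hours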
[22] = molecular target: T4, High affinity choline transporter 1 (Homo sapiens, UniProt Q9GZV3); assay: CHT choline uptake inhibitors, dose response, cell-based, HEK-293 hCHT, [3H]-choline uptake (AID 652177); type: functional
T4 sequence (Q9GZV3 whole entry): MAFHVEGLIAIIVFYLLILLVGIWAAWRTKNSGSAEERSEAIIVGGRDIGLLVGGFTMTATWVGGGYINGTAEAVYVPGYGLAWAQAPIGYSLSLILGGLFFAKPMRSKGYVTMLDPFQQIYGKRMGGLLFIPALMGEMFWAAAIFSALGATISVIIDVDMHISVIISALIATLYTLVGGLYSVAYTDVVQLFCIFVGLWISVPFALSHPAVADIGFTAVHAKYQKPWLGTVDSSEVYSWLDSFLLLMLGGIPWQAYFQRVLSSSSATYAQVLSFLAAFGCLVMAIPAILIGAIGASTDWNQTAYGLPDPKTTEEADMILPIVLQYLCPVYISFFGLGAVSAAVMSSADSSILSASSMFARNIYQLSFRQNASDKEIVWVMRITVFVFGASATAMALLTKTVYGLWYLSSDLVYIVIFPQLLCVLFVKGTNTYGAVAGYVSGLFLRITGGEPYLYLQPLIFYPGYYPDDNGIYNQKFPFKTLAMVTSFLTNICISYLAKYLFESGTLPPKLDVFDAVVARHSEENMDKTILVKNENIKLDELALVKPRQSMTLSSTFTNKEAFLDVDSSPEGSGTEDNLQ

[23] = Keap1 Kelch-Nrf2 peptide binding inhibitors, dose response, biochemical, fluorescence polarization, dry powder, set 3 (AID 651806)
[24] = HEK293T cell cytotoxicity, dose response, cytotoxicity control, luminescence plate reader, powder samples, set 4 (AID 651863); type: functional, cell-based; conditions: HEK293
[25] = molecular target: Metabotropic glutamate receptor 5 (Rattus norvegicus, UniProt P31424); assay: Identification of a glycine sulfonamide based non-MPEP site positive allosteric potentiator (PAM) of mGlu5 (calcium_assay).; type: functional
Metabotropic glutamate receptor 5, sequence (P31424 whole entry): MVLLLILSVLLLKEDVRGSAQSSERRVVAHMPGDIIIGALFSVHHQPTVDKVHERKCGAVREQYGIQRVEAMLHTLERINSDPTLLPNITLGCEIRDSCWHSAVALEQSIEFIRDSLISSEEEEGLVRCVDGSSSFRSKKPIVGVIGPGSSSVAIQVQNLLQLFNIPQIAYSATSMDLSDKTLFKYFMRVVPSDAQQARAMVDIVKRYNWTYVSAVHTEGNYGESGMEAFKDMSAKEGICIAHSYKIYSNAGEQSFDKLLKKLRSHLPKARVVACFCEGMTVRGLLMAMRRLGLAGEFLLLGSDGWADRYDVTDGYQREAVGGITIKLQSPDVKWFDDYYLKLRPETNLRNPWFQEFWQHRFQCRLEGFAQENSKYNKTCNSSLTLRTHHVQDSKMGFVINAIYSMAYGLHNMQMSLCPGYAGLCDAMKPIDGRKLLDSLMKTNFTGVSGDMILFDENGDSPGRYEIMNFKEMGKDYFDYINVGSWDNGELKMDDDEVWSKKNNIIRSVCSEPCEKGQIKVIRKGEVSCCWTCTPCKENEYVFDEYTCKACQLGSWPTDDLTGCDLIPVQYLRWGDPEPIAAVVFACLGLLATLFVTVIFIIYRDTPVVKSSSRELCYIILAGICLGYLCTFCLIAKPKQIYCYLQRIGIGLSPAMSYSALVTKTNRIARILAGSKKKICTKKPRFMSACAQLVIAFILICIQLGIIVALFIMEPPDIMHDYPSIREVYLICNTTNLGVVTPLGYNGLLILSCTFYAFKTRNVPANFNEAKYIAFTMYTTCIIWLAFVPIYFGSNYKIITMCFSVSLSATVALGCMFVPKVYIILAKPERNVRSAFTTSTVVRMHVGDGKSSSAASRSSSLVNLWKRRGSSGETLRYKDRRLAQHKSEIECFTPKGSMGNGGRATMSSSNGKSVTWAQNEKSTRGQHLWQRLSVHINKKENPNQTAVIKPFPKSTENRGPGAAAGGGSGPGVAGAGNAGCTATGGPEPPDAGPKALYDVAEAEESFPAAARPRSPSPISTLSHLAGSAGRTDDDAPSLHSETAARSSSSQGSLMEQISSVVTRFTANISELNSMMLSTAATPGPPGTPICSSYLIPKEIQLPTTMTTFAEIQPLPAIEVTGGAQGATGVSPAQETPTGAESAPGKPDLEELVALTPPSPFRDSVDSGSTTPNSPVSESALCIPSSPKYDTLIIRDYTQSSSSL

[26] = human group III sPLA2 inhibitors, dose response, biochemical, QFRET, IC50 (AID 743457);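 note: green fluorescence rise as the enzyme cleaves BODIPY PC-A2 in liposomes; potency for inhibition of the enzyme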
Vero [27] = assay: cells; type: functional, cell-based; conditions: Chlorocebus sabaeus
[28] = molecular target: T5, Corticotropin-releasing factor receptor 2/Corticotropin-releasing factor-binding protein (Homo sapiens, UniProt P24387+Q13324); assay: activators of CRF receptor 2 with binding protein – uHTS hits, confirmation (AID 602473); type: functional; conditions: read-out: EC50_Mean
T5 sequence (Q13324 whole entry): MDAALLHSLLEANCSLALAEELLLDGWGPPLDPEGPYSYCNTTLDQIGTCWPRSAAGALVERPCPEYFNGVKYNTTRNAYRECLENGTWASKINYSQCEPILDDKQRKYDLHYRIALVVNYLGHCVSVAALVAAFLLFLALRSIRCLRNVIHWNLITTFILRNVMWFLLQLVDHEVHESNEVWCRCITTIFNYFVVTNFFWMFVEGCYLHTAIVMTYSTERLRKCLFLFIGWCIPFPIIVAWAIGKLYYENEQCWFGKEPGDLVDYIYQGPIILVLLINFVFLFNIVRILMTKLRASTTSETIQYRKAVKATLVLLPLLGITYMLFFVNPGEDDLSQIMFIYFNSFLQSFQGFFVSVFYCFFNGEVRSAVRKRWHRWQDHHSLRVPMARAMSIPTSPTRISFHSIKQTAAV
T5 sequence (P24387 whole entry): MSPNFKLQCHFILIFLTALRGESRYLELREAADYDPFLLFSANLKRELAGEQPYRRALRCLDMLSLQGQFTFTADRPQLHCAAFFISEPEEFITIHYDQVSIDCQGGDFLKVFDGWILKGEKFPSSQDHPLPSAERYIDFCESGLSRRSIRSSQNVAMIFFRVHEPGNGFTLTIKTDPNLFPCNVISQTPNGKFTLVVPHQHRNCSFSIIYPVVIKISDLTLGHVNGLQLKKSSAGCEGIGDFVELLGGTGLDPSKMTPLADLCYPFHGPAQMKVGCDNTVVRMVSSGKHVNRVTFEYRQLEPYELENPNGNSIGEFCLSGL

Vero [29] = assay: cells; type: functional; conditions: Chlorocebus sabaeus

CC1CCN(S(=O)(=O)N2CCC(C(=O)NC3CCCC3)CC2)CC1
AC50 (cells [1]): > 52 µM (inactive)
EC50 [2]: > 120 µM (not active)
EC50 [3]: > 120 µM (not active)
AC50 (cells [4]): > 70 µM (inactive)
EC50 (H4): > 120 µM (not active)

Cc1csc(SCC(=O)Nc2sccc2C#N)n1
EC50 (cells [5]): > 67.6 µM (inactive)
EC50 [6]: > 67.6 µM (inactive)

COc1ccccc1NS(=O)(=O)c1cccc(NC(=O)Nc2ccccc2)c1
IC50 [7]: 0.644 µM (active)
IC50 [8]: 64.2 µM (inactive)
IC50 [9]: 48.8 µM (inactive)
IC50 [10]: 1.27 µM (active)

COC(=O)c1ccc(NC(=O)CSc2ccc(-c3ccccn3)nn2)cc1
IC50 [11]: 35.9 µM (inactive)
IC50 (Steroidogenic factor 1): 35.9 µM (inactive)
IC50 [12]: 35.9 µM (inactive)
AC50 [13]: 115 µM (active)

Oc1ccc(Cl)cc1CNc1cccc2cccnc12
AC50 (Caspase-6): 48.4 µM (active)
EC50 (Streptokinase A): > 150 µM (not active)
EC50 [14]: 23.9 µM (active)
EC50 (Streptococcus): > 150 µM (not active)

FC(F)(F)Oc1ccccc1-c1nnc(SCc2ccccc2)o1
AC50 [15]: > 52 µM (inactive)

Cc1cccc(C(=O)Nc2cccc(NC(=O)c3ccc(C(C)(C)C)cc3)c2)c1
IC50 [16]: 0.184 µM (active)
IC50 [17]: 32.8 µM (active)

CC(C)CNc1ccnc(NCc2csc(-c3ccccc3)n2)n1
AC50 [18]: 4.74 µM (active)
AC50 [19]: 5.54 µM (active)

Cc1noc(C)c1S(=O)(=O)Nc1ccc2c(c1)C(=O)N([C@H](C)CO)C[C@H](C)[C@H](CN(C)Cc1ccc3c(c1)OCO3)OCCCC[C@@H](C)O2
AC50 [20]: 15.7 µM (active)

C[C@@H]1CN([C@@H](C)CO)S(=O)(=O)c2ccc(C#CC3CC3)cc2O[C@H]1CN(C)CC1CCOCC1
AC50 (HeLa): > 52 µM (inactive)
AC50 [21]: 31.7 µM (active)
AC50 (HEK293): 31.7 µM (active)

CCn1nc(C)c(CNC(=O)c2ccc(OC)c(OC3CCN(C(C)C)CC3)c2)c1C
IC50 [22]: 1.75 µM (active)

O=C(O)C1CCCCC1C(=O)N1CCc2ccccc2C1CN1Cc2ccccc2C1=O (stereo not drawn)
AC50 [23]: 91.2 µM (active)
AC50 [24]: 39.1 µM (active)

CS(=O)(=O)N(CC(=O)N1CCc2ccccc21)c1ccccc1Cl
EC50 [25]: 10 µM (inconclusive)

Cc1ccc(C(=O)NNC(=S)NC(=O)c2ccco2)cc1
IC50 [26]: > 122 µM (inactive)
EC50 [14]: 1.87 µM (active)
IC50 (Vero [27]): 23.6 µM (active)
EC50 (Streptococcus): 8.89 µM (active)
EC50 [28]: 7.87 µM (active)
CC50 (Vero [29]): > 25 µM (active)
